Measurements reported in patent US20240131032A1, “AN ACTIVITY-GUIDED MAP OF ELECTROPHILE-CYSTEINE INTERACTIONS IN PRIMARY HUMAN IMMUNE CELLS” (The Scripps Research Institute, priority 2019, published 2024).

Key:
TMEM173 = molecular target: T1, TMEM173 (Homo sapiens, UniProt Q86WV6); assay: TMEM173/STING pathway activation by cGAMP in PBMCs (qPCR, ELISA, Bio-Plex); format: cell-based; conditions: BPK-25 10 μM
T1 construct: endogenous in cells; host or cells: primary human T cells
Description: FIG. 12A is a pie chart showing the fraction of protein targets of active compounds with available crystal structures containing the corresponding liganded cysteine residues. FIG. 12B is a computer-generated model of BPK-21 and BPK-25 interactions with C91 of stimulator of interferon genes protein (STING, or TMEM173). FIG. 12C is a graph of IRF response of THP1-Lucia™ ISG cells. THP-1 Lucia ISG cells were treated with DMSO or BPK-25 in the presence of viral dsDNA (2 μg/mL) for 24 h and the levels of IRF-induced Lucia luciferase were determined using QUANTI-Luc™. Cell viability was measured using CellTiter-Glo™ assay. Luminescence signals for test samples were normalized to DMSO-treated samples and reported as relative light units (RLU)±SEM; n=3/group. […] Relative expression of IL-6, IL-1β, and IP10 (CXCL10) genes was measured by qPCR and normalized to actin. […] GFP-positive cells were further analyzed for CD25 and CD69 expression levels by measuring mean fluorescence intensity of the PE- (PE-CD25) and APC-channels (APC-CD69). […]
Freshly isolated PBMCs (4×10^6 cells/mL, 1 mL/well), were treated with BPK-25 (10 μM) or vehicle (DMSO) for 6 h in a 24-well plate, after which cGAMP (10 μM) was added to the wells and the cells were incubated for additional 20 h. […] When run on the Bioplex 200 system, […] of supernatant was mixed with 50 μL of beads and quantified against human cytokines standard curves. […]

NuRD complex = assay: Western blot of NuRD complex members in T cells; format: cell-based, human; conditions: BPK-25 10 μM
Description: FIG. 7B is a scatter plot representation of protein abundance changes caused by BPK-25 (10 μM, 24 h) in two independent replicate experiments, with decreases in NuRD complex components highlighted in red. FIG. 7C is a heatmap of top proteins with decreased abundance in BPK-25-treated T cells showing that the subset of these proteins in the NuRD complex (asterisks) were largely unaltered by other active compounds and blocked in their degradation by co-treatment with the proteasome inhibitor MG132. […] FIG. 7E is a bar graph […] showing time-dependent reductions in NuRD complex members in human T cells treated with BPK-25 (10 μM). Left, representative western blots. Right, quantification of changes in protein. […]
BPK-25 (10 μM) treated expanded T cells were washed with PBS before permeabilization by rotation at 4° C. for 10 min with cytoplasm lysis buffer (10 mM sodium phosphate pH 7.4, 25 mM KCl, 1.5 mM MgCl2, 10% glycerol, and 0.025% NP40 supplemented with 1×HALT protease inhibitor cocktail (Thermo Scientific)). […] Insoluble material was precipitated by centrifugation (12,000 g, […]) and the protein concentration of nuclear extracts was measured using standard BCA assay (Thermo Scientific) and normalized. […] Blots were imaged using fluorescence-labeled secondary antibodies (LI-COR) on the Odyssey CLx Imager.

BIRC3 = molecular target: T2, BIRC3 (Homo sapiens, UniProt Q13489, C28A); assay: Western blot of BIRC3 content in human T cells; format: cell-based; conditions: EV-3 10 μM, 24 h; transfected primary human T cells
T2 construct: endogenous in cells; host or cells: primary human T cells
T2 sequence (Q13489 whole entry C28A): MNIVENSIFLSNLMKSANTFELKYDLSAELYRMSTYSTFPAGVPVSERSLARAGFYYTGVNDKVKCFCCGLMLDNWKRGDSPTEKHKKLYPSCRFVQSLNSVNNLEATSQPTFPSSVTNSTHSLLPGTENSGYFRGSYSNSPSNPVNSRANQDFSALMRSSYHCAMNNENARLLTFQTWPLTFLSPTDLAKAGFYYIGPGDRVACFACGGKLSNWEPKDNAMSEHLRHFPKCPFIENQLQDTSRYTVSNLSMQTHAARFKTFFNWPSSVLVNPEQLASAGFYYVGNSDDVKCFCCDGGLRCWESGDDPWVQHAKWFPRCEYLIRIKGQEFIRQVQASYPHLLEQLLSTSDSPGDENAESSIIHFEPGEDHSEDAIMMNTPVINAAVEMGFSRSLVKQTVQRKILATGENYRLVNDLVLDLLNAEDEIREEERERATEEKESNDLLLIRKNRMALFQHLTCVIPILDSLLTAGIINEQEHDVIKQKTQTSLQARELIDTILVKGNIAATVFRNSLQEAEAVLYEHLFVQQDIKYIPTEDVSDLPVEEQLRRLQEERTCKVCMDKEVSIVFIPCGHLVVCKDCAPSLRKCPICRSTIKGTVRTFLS

T1 sequence (Q86WV6 whole entry H232R): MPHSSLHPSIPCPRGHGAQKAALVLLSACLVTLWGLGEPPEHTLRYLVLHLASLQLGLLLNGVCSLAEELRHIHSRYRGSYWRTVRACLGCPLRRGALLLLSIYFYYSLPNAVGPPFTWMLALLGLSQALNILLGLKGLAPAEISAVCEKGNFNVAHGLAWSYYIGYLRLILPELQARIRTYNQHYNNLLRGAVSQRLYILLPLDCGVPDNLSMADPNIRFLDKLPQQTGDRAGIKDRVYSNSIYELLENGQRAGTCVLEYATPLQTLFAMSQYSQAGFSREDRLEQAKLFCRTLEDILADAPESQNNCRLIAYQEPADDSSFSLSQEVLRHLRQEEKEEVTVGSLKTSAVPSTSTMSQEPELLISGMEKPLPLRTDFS

C=CC(=O)N(Cc1cccc(Cl)n1)c1ccc(C(=O)Nc2ccccc2)nc1 [BPK-25]
TMEM173 activation by cGAMP in primary human PBMCs (TMEM173): inhibited TMEM173 activation | time of initial changes in NuRD complex proteins (NuRD complex): 6 h | time of maximal effects on NuRD complex proteins (NuRD complex): 24 h

O=C(CCl)N1CCN(S(=O)(=O)c2ccc(-c3ccncc3)cc2)CC1 [EV-3]
FLAG-tagged BIRC3 C28A mutant content (BIRC3): but not cysteine mutants
